Results on twelve molecules are retold here after the supplement of paper PMC4862054.

Conditions in all cases: incubation time: 72 h
The subject of test [1] is HCC1143. Nature of the test: normalised viability (% of control), CellTiter-Blue; higher = more viable cells (about 100 = DMSO control). The procedure:
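DSRT, CellTiter-Blue viability, 72 h incubation. Signal is normalised to DMSO and benzethonium chloride controls. Value is the normalised response at dose 3.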
(Resazurin is reduced to fluorescent resorufin, in cell work by metabolically active cells.)

For test [2], the system named is CAL-85-1. Nature of the test: drug sensitivity score (DSS), CellTiter-Glo (DSS (AUC-based score)); higher = stronger drug effect (viability inhibition or cytotoxicity); extreme values may be limits of the assay. An outline of the steps:
(§1)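 Breast cancer cell lines were seeded in 20 µl suspension into 384-well plates already holding compound and incubated for 72 h. Each compound was tested at 5 concentrations in 10-fold steps across its own 10,000-fold range. Plates were normalised to 0.1 % DMSO and a positive kill control after CellTox Green and then CellTiter-Glo readings. The area under the fitted dose-response curve served as the basis for the drug sensitivity score.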
On the technique in general: In ATP-based viability assays light output follows the ATP content of the culture.

A further test deals with MFM-223. Described as above. An outline of the steps:
as §1

In a further test the test system is BT-549. Described as above. In a few lines:
as §1

Test [3] deals with HDQ-P1. The description is as above. In a few lines:
as §1

The test system of another test is MCF-10A. The description is as above. An outline of the steps: as §1
In a further test the test system is HCC1937. The test is described as above. In a few lines: as §1
The next test relates to SK-BR-3. Described as above. In a few lines:
as §1

Test [4] relates to DU-4475. Described as above. In a few lines:
as §1

The test system of the next test is CAL-120. The test is described as above. An outline of the steps: as §1
Test [5] relates to CAL-148. The test is described as above. In a few lines:
as §1

In a further test the test system is HCC1599. The description is as above. In a few lines:
as §1

Test [6] deals with MDA-MB-453. The test is described as above. In a few lines:
as §1

For the next test, the system named is MDA-MB-468. The test is described as above. An outline of the steps: as §1
The next test relates to MDA-MB-436. The description is as above. An outline of the steps: as §1
For a further test, the system named is BT-474. Described as above. In a few lines:
as §1

Test [7] concerns HCC1143. Described as above. An outline of the steps: as §1
Test [8] relates to CAL-51. Described as above. In a few lines:
as §1

The subject of another test is MDA-MB-231. The description is as above. In a few lines: as §1
Another test deals with Hs578T. The description is as above. An outline of the steps:
as §1

The test system of test [9] is CAL-85-1. The test can be described thus: normalised viability (% of control), CellTiter-Blue; higher = more viable cells (about 100 = DMSO control). Here is the method: (§2)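 DSRT, CellTiter-Blue viability, 72 h incubation. Signal is normalised to DMSO and benzethonium chloride controls. Value is the normalised response at dose 7.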
The subject of test [10] is HDQ-P1. Described as above. The procedure: as §2
The test system of test [11] is DU-4475. The description is as above. The procedure:
as §2

Test [12] has as its system CAL-148. The test is described as above. The procedure:
as §2

Test [13] has as its system MDA-MB-453. Described as above. The procedure: as §2
Test [14] deals with CAL-51. Described as above. Here is the method: as §2

Regarding `N.N.[Cl][Pt][Cl]` [Cisplatin], the normalised viability with HCC1143 [1] (100 nM) is 103%. Moreover, the drug sensitivity score in the test with CAL-85-1 [2], in the test on MFM-223, with BT-549, with HDQ-P1 [3], in the test on MCF-10A and in the test with HCC1937 was 0 throughout. Moreover, the drug sensitivity score in the test on SK-BR-3, in the test with DU-4475 [4], in the test on CAL-120, in the test with CAL-148 [5], with HCC1599 and with MDA-MB-453 [6] was 0 in each case. Further, the drug sensitivity score in the test on MDA-MB-468, in the test with MDA-MB-436, in the test with BT-474, with HCC1143 [7], with CAL-51 [8] and in the test on MDA-MB-231 was 0 throughout. The molecule further gave a drug sensitivity score in the test on Hs578T of 0.

As for `C[C@@H](Oc1cc(-c2cnn(C3CCNCC3)c2)cnc1N)c1c(Cl)ccc(F)c1Cl` [Crizotinib], the normalised viability with HCC1143 [1] (100 nM) came out at 95.8%. The drug sensitivity score in the test on CAL-85-1 [2], in the test on MFM-223, in the test with BT-549, in the test with HDQ-P1 [3], in the test on MCF-10A and with HCC1937 was 0 each time. The drug sensitivity score in the test on SK-BR-3, in the test on DU-4475 [4], in the test with CAL-120, in the test on CAL-148 [5], with HCC1599 and in the test on MDA-MB-453 [6] was 0 in each case. The drug sensitivity score in the test with MDA-MB-468 came to 0.0242; in the test on MDA-MB-436, 0; in the test on BT-474, 0; in the test with HCC1143 [7], 0; with CAL-51 [8], 0; in the test with MDA-MB-231 it was 0. In the test on Hs578T, the drug sensitivity score was determined as 0.

In the case of `CN(C)/N=N/c1[nH]cnc1C(N)=O` [Dacarbazine], the normalised viability in the test on HCC1143 [1] (100 nM) came to 89.2%. In addition, the drug sensitivity score in the test with CAL-85-1 [2], in the test with MFM-223, with BT-549, in the test on HDQ-P1 [3], with MCF-10A and in the test with HCC1937 was 0 each time. Moreover, the drug sensitivity score turned out to be 0 in the test with SK-BR-3; 0 in the test on DU-4475 [4]; 0.483 in the test with CAL-120; 0 in the test with CAL-148 [5]; 0 in the test on HCC1599; 0 with MDA-MB-453 [6]. Also, the drug sensitivity score in the test with MDA-MB-468, in the test with MDA-MB-436, in the test with BT-474, with HCC1143 [7], with CAL-51 [8] and with MDA-MB-231 was 0 in each case. For the same molecule, the drug sensitivity score with Hs578T was 0.

For the molecule `Cc1ccc(-n2nc(C(C)(C)C)cc2NC(=O)Nc2ccc(OCCN3CCOCC3)c3ccccc23)cc1` [Doramapimod], the normalised viability in the test with HCC1143 [1] (100 nM) was 100%. Also, the drug sensitivity score is 0 in the test on CAL-85-1 [2]; 2.15 with MFM-223; 0 with BT-549; 1.32 in the test on HDQ-P1 [3]; 0 in the test on MCF-10A; 0 in the test with HCC1937. The drug sensitivity score in the test with SK-BR-3 worked out at 0; in the test with DU-4475 [4], 0; with CAL-120, 0; in the test with CAL-148 [5], 0; in the test on HCC1599, 0; with MDA-MB-453 [6], 1.59. Moreover, the drug sensitivity score with MDA-MB-468 was found to be 2.44; with MDA-MB-436, 0; with BT-474 it was 1.64; with HCC1143 [7], 0; in the test on CAL-51 [8], 0; in the test on MDA-MB-231 it was 0. Further, the drug sensitivity score with Hs578T stood at 0.

On to `C#Cc1cccc(Nc2ncnc3cc(OCCOC)c(OCCOC)cc23)c1` [Erlotinib], for which the normalised viability with HCC1143 [1] (100 nM) is 92.9%. Moreover, the drug sensitivity score in the test on CAL-85-1 [2] was found to be 7.99; in the test with MFM-223, 0; in the test with BT-549, 0; with HDQ-P1 [3], 9.11; in the test with MCF-10A, 16.3; with HCC1937, 0. Also, the drug sensitivity score with SK-BR-3 amounted to 2.74; in the test with DU-4475 [4] it was 0; with CAL-120, 0.577; with CAL-148 [5] it was 1.84; in the test with HCC1599, 0; in the test with MDA-MB-453 [6], 0. The drug sensitivity score with MDA-MB-468 was 0; in the test with MDA-MB-436, 0.203; in the test on BT-474, 0; in the test on HCC1143 [7], 0; in the test with CAL-51 [8] it was 2.18; in the test with MDA-MB-231, 0. In the test on Hs578T, this molecule registered a drug sensitivity score of 0.

As for `Cc1ccc(C(=O)Nc2ccc(CN3CCN(C)CC3)c(C(F)(F)F)c2)cc1C#Cc1cnc2cccnn12` [Ponatinib], the normalised viability in the test with HCC1143 [1] (10 nM) worked out at 100%.

In the case of `CN(N=O)C(=O)N[C@@H](C=O)[C@@H](O)[C@H](O)[C@H](O)CO` [Streptozocin] (1000 nM), the normalised viability in the test with CAL-85-1 [9] was 91.2%; in the test with HDQ-P1 [10], 95.5%; with DU-4475 [11] it was 112%; in the test with CAL-148 [12], 98.6%; with MDA-MB-453 [13], 105%; in the test on CAL-51 [14], 103%.

For the molecule `O=C1CCC(N2C(=O)c3ccccc3C2=O)C(=O)N1` (configuration not stated) [Thalidomide] (1000 nM), the normalised viability was 99.4% with CAL-85-1 [9]; 81.1% in the test on HDQ-P1 [10]; 97% in the test with DU-4475 [11]; 116% in the test on CAL-148 [12]; 103% in the test on MDA-MB-453 [13]; 84.8% with CAL-51 [14].

For the molecule `CN[C@@H]1C[C@H]2O[C@@](C)([C@@H]1OC)n1c3ccccc3c3c4c(c5c6ccccc6n2c5c31)C(=O)N[C@H]4O` [UCN-01] (1000 nM), the normalised viability with CAL-85-1 [9] was 33.7%; in the test on HDQ-P1 [10], 32.1%; in the test on DU-4475 [11], 10.1%; in the test on CAL-148 [12] it was 81.5%; in the test on MDA-MB-453 [13], 30.2%; with CAL-51 [14], 16.8%.

For `Clc1ccc(Nc2nnc(Cc3ccncc3)c3ccccc23)cc1` [Vatalanib] (1000 nM), the normalised viability stood at 92.5% in the test on CAL-85-1 [9]; 98.6% with HDQ-P1 [10]; 97.8% with DU-4475 [11]; 83.4% in the test with CAL-148 [12]; 91.6% in the test with MDA-MB-453 [13]; 101% with CAL-51 [14].

As to `CCC1=C[C@@H]2CN(C1)Cc1c([nH]c3ccccc13)[C@@](C(=O)OC)(c1cc3c(cc1OC)N(C)[C@H]1[C@@](O)(C(=O)OC)[C@H](OC(C)=O)[C@]4(CC)C=CCN5CC[C@]31[C@@H]54)C2` [Vinorelbine] (1000 nM), the normalised viability with CAL-85-1 [9] worked out at 37.5%; with HDQ-P1 [10], 38.6%; in the test on DU-4475 [11], 29%; in the test on CAL-148 [12], 21.1%; in the test with MDA-MB-453 [13] it was 28%; in the test on CAL-51 [14], 19.7%.

As for `Oc1nc(-c2ccc(C(F)(F)F)cc2)nc2c1CSCC2` [XAV-939] (1000 nM), the normalised viability in the test on CAL-85-1 [9] is 81.8%; in the test with HDQ-P1 [10], 103%; with DU-4475 [11], 108%; in the test on CAL-148 [12], 101%; in the test on MDA-MB-453 [13], 90.3%; in the test with CAL-51 [14], 93.2%.
